According to patent US7825160B2, “(Biphenyl) carboxylic acids and derivatives thereof” (Cellzome Limited, priority 2004, dated 2010):

Experiments:
[1] = Demonstration of CNS penetration, brain and plasma levels in mice; type: in vivo; conditions: mouse, oral, mice (C57), 100 mg/kg orally, samples at 2, 4 and 8 h, read-out: % ratio of brain to plasma concentration
Experimental: In-vivo Study: A total number of 24 mice (C57) were dosed orally at 100 mg/kg of drug compound in 10% propylene glycol, 7.5% ethanol and 82.5% solutol. At designated times (2, 4 and 8 his), a group of eight mice were sacrificed, and plasma and brain tissue samples were collected by following the NIH guideline.
Bioanalytical: Plasma samples were prepared as follows. Two hundred microliters of acetonitrile containing internal standard was added to 100 μL of plasma to precipitate proteins. After vortexing, samples were centrifuged at 10000 g for 10 min and supernatants were transferred to HPLC sample vials for analysis by LC-MS-MS. Calibration standards were prepared by adding appropriate volumes of drug stock solution directly into blank plasma (from untreated animals) and processed identically to collected plasma samples.
Brain tissues were first homogenized in two-volume of PBS buffer (e.g. 100 mg tissue in 200 μL PBS). Two hundred microliters of acetonitrile containing internal standard was added to 100 μL of tissue homogenants to precipitate proteins. Three replicates were processed for each tissue homogenant. After vortexing, samples were centrifuged at 10000 g for 10 min and supernatants were transferred to HPLC sample vials for analysis by LC-MS-MS. […]

γ-secretase activity = test: Screening for γ-secretase-modulating activity in SKN neuroblastoma cells carrying APP swedish mutant; type: cell-based; conditions: read-out: IC50 on the γ-secretase activity, Activity range
Experimental: Screening was carried out using SKN neuroblastoma cells carrying the APP-“swedish mutant” (point mutations at position 595 and 596, numbering based on APP695) grown in DMEM/NUT-mix F12 (HAM) provided by Gibco (cat no. 31330-38) containing 5% Serum/Fe supplemented with 1% non-essential amino acids, 100 U/ml Pen/Strep.
Cells were grown to near confluency.
The screening was performed using the assay as described in Citron et al (1997) Nature Medicine 3: 67.
IC50-Values of Selected Compounds of the Invention on the γ-Secretase Activity.

Cyclooxygenase-2 (Cox-2) = molecular target: T1, Cyclooxygenase-2 (Cox-2) (Ovis aries, UniProt P79208); test: Colorimetric Cox inhibitor screening assay (Cayman), Cox-2; type: biochemical
T1 construct: purchased Cayman Chemical Company 760111
T1 sequence (P79208 17-603): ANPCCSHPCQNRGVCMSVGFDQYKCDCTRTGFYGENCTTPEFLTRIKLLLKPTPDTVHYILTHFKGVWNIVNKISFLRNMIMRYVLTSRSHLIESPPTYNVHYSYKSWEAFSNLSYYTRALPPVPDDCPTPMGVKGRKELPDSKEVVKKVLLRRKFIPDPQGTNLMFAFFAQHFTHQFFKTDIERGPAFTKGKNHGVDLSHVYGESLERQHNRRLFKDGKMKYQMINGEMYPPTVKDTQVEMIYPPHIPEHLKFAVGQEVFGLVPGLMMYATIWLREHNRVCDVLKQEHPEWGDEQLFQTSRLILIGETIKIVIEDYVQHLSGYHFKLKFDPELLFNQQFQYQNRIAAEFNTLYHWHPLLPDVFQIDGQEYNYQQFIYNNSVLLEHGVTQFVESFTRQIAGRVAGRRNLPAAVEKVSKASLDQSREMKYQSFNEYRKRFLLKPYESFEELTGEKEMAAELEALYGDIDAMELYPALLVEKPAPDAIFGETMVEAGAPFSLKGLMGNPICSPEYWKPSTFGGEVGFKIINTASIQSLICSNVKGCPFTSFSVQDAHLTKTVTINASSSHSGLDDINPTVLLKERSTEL
Experimental: (§1) Determination of the Effect of the Compounds According to the Invention on Cyclooxygenase-1 and Cyclooxygenase-2 (Cox-1, Cox-2)
(§2) Inhibition of Cox-1 and Cox-2 was determined using the Colorimetric Cox inhibitor screening assay provided by Cayman Chemical Company, Ann Arbor, Mich., USA. (Cat. No. 760111) according to manufacturer's instructions.

Cyclooxygenase-1 (Cox-1) = molecular target: T2, Cyclooxygenase-1 (Cox-1) (Ovis aries, UniProt P05979); test: Colorimetric Cox inhibitor screening assay (Cayman), Cox-1; type: biochemical
T2 construct: purchased Cayman Chemical Company 760111
T2 sequence (P05979 25-600): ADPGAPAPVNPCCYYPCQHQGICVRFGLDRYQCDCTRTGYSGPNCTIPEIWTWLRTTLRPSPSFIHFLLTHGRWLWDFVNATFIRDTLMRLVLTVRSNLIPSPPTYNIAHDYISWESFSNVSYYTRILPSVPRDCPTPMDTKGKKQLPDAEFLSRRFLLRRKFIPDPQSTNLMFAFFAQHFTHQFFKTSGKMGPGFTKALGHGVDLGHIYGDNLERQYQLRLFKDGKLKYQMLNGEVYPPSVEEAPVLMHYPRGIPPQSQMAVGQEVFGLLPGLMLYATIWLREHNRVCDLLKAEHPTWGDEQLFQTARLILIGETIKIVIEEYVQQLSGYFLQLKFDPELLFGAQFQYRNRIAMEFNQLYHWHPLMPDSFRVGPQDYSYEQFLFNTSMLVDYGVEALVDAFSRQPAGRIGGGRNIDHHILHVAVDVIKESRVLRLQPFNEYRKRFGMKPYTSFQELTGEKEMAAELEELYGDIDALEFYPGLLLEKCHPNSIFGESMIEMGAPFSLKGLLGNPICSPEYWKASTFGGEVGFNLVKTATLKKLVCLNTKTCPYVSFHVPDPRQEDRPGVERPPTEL
Experimental: as §1, §2

| SMILES | Kp [1] | IC50 (γ-secretase activity) | inhibition at 100 µM (Cyclooxygenase-2 (Cox-2)) | inhibition at 100 µM (Cyclooxygenase-1 (Cox-1)) |
| --- | --- | --- | --- | --- |
| CCC[C@@H](C(=O)O)c1cc(OCc2ccccc2)cc(-c2ccc(C(F)(F)F)cc2)c1 (single isomer, unassigned) [LXIV] | 0.286 | – | – | – |
| O=C(O)Cc1cc(OCc2ccc(F)cc2)cc(-c2ccc(C(F)(F)F)cc2)c1 [I, [5-(4-Fluoro-benzyloxy)-4′-trifluoromethyl-biphenyl-3-yl]-acetic acid] | – | 1 to 10 µM | < 50% | < 50% |
| O=C(O)Cc1cc(OCc2ccc(C(F)(F)F)cc2)cc(-c2ccc(C(F)(F)F)cc2)c1 [III, [4′-Trifluoromethyl-5-(4-trifluoromethyl-benzyloxy)-biphenyl-3-yl]-acetic acid] | – | < 1 µM | < 50% | < 50% |
| O=C(O)Cc1cc(OCc2ccccc2)cc(-c2cc(Cl)cc(Cl)c2)c1 [IX, (5-Benzyloxy-3′,5′-dichloro-biphenyl-3-yl)-acetic acid] | – | 1 to 10 µM | < 50% | < 50% |
| O=C(O)Cc1cc(OCC2CCCCC2)cc(-c2ccc(C(F)(F)F)cc2)c1 [V, (5-Cyclohexylmethoxy-4′-trifluoromethyl-biphenyl-3-yl)-acetic acid] | – | < 1 µM | < 50% | < 50% |
| O=C(O)Cc1cc(OCc2ccc(S(=O)(=O)N3CCCC3)cc2)cc(-c2ccc(C(F)(F)F)cc2)c1 [VI, {5-[4-(Pyrrolidine-1-sulfonyl)-benzyloxy]-4′-trifluoromethyl-biphenyl-3-yl}-acetic acid] | – | 1 to 10 µM | < 50% | < 50% |
| CCCC(C(=O)O)c1cc(OCc2ccccc2)cc(-c2ccc(C(F)(F)F)cc2)c1 (stereo not drawn) [VIII, 2-(5-Benzyloxy-4′-trifluoromethyl-biphenyl-3-yl)-pentanoic acid] | – | < 1 µM | < 50% | < 50% |
| O=C(O)Cc1cc(OCc2ccccc2)cc(-c2ccc(C(F)(F)F)cc2)c1 [X, (5-Benzyloxy-4′-trifluoromethyl-biphenyl-3-yl)-acetic acid] | – | 1 to 10 µM | < 50% | < 50% |
| O=C(O)Cc1cc(OCc2ccccc2)cc(-c2ccc(OC(F)(F)F)cc2)c1 [XIII, (5-Benzyloxy-4′-trifluoromethoxy-biphenyl-3-yl)-acetic acid] | – | 1 to 10 µM | < 50% | < 50% |
| CC(C(=O)O)c1cc(OCc2ccccc2)cc(-c2ccc(C(F)(F)F)cc2)c1 (stereo not drawn) [XIX, 2-(5-Benzyloxy-4′-trifluoromethyl-biphenyl-3-yl)-propionic acid] | – | 1 to 10 µM | < 50% | < 50% |
| CCCC(C(=O)O)c1cc(OCC2CC2)cc(-c2ccc(C(F)(F)F)cc2)c1 (stereo not drawn) [XL, 2-(5-Cyclopropylmethoxy-4′-trifluoromethyl-biphenyl-3-yl)-pentanoic acid] | – | 1 to 10 µM | < 50% | < 50% |
| O=C(O)Cc1cc(OCC2CC2)cc(-c2ccc(C(F)(F)F)cc2)c1 [XLII, (5-Cyclopropylmethoxy-4′-trifluoromethyl-biphenyl-3-yl)-acetic acid] | – | 1 to 10 µM | < 50% | < 50% |
| O=C(O)Cc1cc(OCc2cc(Cl)cc(Cl)c2)cc(-c2ccc(C(F)(F)F)cc2)c1 [XLIV, [5-(3,5-Dichloro-benzyloxy)-4′-trifluoromethyl-biphenyl-3-yl]-acetic acid] | – | 1 to 10 µM | < 50% | < 50% |
| CN(C)S(=O)(=O)c1ccc(COc2cc(CC(=O)O)cc(-c3ccc(C(F)(F)F)cc3)c2)cc1 [XLVI, [5-(4-Dimethylsulfamoyl-benzyloxy)-4′-trifluoromethyl-biphenyl-3-yl]-acetic acid] | – | 1 to 10 µM | < 50% | < 50% |
| CC(Oc1cc(CC(=O)O)cc(-c2ccc(C(F)(F)F)cc2)c1)c1ccccc1 (stereo not drawn) [XLVII, [5-(1-Phenyl-ethoxy)-4′-trifluoromethyl-biphenyl-3-yl]-acetic acid] | – | 1 to 10 µM | < 50% | < 50% |
| CC(C)(C(=O)O)c1cc(OCc2ccccc2)cc(-c2ccc(C(F)(F)F)cc2)c1 [XX, 2-(5-Benzyloxy-4′-trifluoromethyl-biphenyl-3-yl)-2-methyl-propionic acid] | – | 1 to 10 µM | < 50% | < 50% |
| O=C(O)C1(c2cc(OCc3ccccc3)cc(-c3ccc(C(F)(F)F)cc3)c2)CC1 [XXI, 1-(5-Benzyloxy-4′-trifluoromethyl-biphenyl-3-yl)-cyclopropanecarboxylic acid] | – | 1 to 10 µM | < 50% | < 50% |
| Cc1ccccc1-c1cc(CC(=O)O)cc(OCc2ccccc2)c1 [XXXI, (5-Benzyloxy-2′-methyl-biphenyl-3-yl)-acetic acid] | – | 10 to 100 µM | – | – |
| Cc1cccc(-c2cc(CC(=O)O)cc(OCc3ccccc3)c2)c1 [XXXII, (5-Benzyloxy-3′-methyl-biphenyl-3-yl)-acetic acid] | – | 10 to 100 µM | – | – |
| O=C(O)Cc1cc(OCc2ccccc2)cc(-c2cccc(C(F)(F)F)c2)c1 [XXXIII, (5-Benzyloxy-3′-trifluoromethyl-biphenyl-3-yl)-acetic acid] | – | 10 to 100 µM | – | – |
| O=C(O)Cc1cc(OCc2ccccc2)cc(-c2ccccc2F)c1 [XXXIV, (5-Benzyloxy-2′-fluoro-biphenyl-3-yl)-acetic acid] | – | 10 to 100 µM | – | – |
| CCCC(C(=O)O)c1cc(OCc2ccc(S(=O)(=O)N3CCCC3)cc2)cc(-c2ccc(C(F)(F)F)cc2)c1 (stereo not drawn) [XXXIX, 2-{5-[4-(Pyrrolidine-1-sulfonyl)-benzyloxy]-4′-trifluoromethyl-biphenyl-3-yl}-pentanoic acid] | – | 1 to 10 µM | < 50% | < 50% |
| Cc1ccc(-c2cc(CC(=O)O)cc(OCc3ccccc3)c2)cc1 [XXXV, (5-Benzyloxy-4′-methyl-biphenyl-3-yl)-acetic acid] | – | 10 to 100 µM | – | – |
| O=C(O)Cc1cc(OCc2ccccc2)cc(-c2cccc(F)c2)c1 [XXXVI, (5-Benzyloxy-3′-fluoro-biphenyl-3-yl)-acetic acid] | – | 10 to 100 µM | – | – |
| O=C(O)Cc1cc(OCc2ccccc2)cc(-c2cccc(Cl)c2)c1 [XXXVII, (5-Benzyloxy-3′-chloro-biphenyl-3-yl)-acetic acid] | – | 100 to 300 µM | – | – |
| O=C(O)Cc1cc(OCc2ccccc2)cc(-c2cccc(OC(F)(F)F)c2)c1 [XXXVIII, (5-Benzyloxy-3′-trifluoromethoxy-biphenyl-3-yl)-acetic acid] | – | 1 to 10 µM | – | – |
